Each structure is given as a SMILES string. Calls of active or inactive are those of the source. How the calls were made is not given here. Some results are limits rather than exact numbers.

The values below come from PubChem BioAssay AID504898 (Southern Research Specialized Biocontainment Screening …, 2011).

The subject of test [1] is M. tuberculosis H37Rv growth inhibition, glycerol-free medium. The experiment in a line: Mycobacterium tuberculosis H37Rv growth inhibition, glycerol free medium, confirmatory dose response (AID 504898). Conditions: for IC50: measured here: M. tuberculosis growth IC50.
Assay in test [2]: as above
Conditions: M. tuberculosis H37Rv growth inhibition, glycerol-free medium; at 100 µM (top of the series).

For `NC[C@H]1O[C@H](O[C@H]2[C@H](O)[C@@H](O[C@H]3O[C@H](CO)[C@@H](O)[C@H](N)[C@H]3O)[C@H](N)C[C@@H]2N)[C@H](O)[C@@H](O)[C@@H]1O`, in test [1], the IC90 was 2420 nM and the IC50 worked out at 1790 nM.
Regarding `CN1CCC(NC(=O)CSc2nc3ccccc3c(=O)[nH]2)CC1`, the growth inhibition in test [2] was -4% (inactive).
Still for that read-out and setting: the same measure for `CCC(Sc1nc2c(c(=O)[nH]1)CCC2)C(=O)Nc1cccc(OC)c1` (stereo not given): -0.59% (inactive); for `COC(=O)c1ccc(CNc2c(N3CCCC3)c(=O)c2=O)cc1`: 0.74% (inactive).
As to `COC(=O)C(C)Oc1ccc(Cc2ncc(C(F)(F)F)cc2Cl)cc1` (stereo not given), in test [1], the IC90 is 5620 nM and the IC50 was 3630 nM.
`Cc1nc(SCC(=O)N(C)c2ccccc2)[nH]c(=O)c1C`: in test [2], the growth inhibition is -9.33% (inactive).
For the compound `Cn1c(SCC(=O)NC2CCCCC2)nc2ccccc2c1=O`, in test [2], the growth inhibition is -3.28% (inactive).
As for `Nc1cc(=O)[nH]c(SCC(=O)NC2CCCCC2)n1`, in test [2], the growth inhibition was 0.56% (inactive).
`CN(C(=O)CSc1nc2ccccc2c(=O)[nH]1)C1CCCCC1`: the growth inhibition in test [2] was 2.63% (inactive).
Consider `Cc1cccc(-c2oc3ccc(-c4ccc5c(c4)OCO5)cc3c2C#Cc2cncn2C)c1`, for which, in test [1], the concentration for an effect of 90% (IC90) was 3020 nM and the half-maximal inhibitory concentration (IC50) was 2610 nM.
As to `CC(C)NC(=O)CSc1nc2ccccc2c(=O)[nH]1`, in test [1], the IC90 was 15000 nM and the 50% inhibitory concentration (IC50) was 9870 nM.
Turning to `O=c1[nH]c(=S)[nH]c2ccccc12`, the growth inhibition in test [2] is -2.86% (inactive).
On the same count and under the same terms, the same measure for `CCSc1nc(C)c(C)c(=O)[nH]1`: 3.43% (inactive).
For `Cc1nc(SCC(=O)NC2CCCCC2)[nH]c(=O)c1C`, in test [1], the concentration for an effect of 90% (IC90) was 9530 nM and the concentration for half-maximal inhibition (IC50) stood at 130 nM.
In test [1], `CNC(=O)CSc1nc2ccccc2c(=O)[nH]1` showed a half-maximal inhibitory concentration (IC50) of 78200 nM.
Regarding `Cc1cc(=O)[nH]c(SCC(=O)NC2CCCCC2)n1`, in test [2], the growth inhibition is -3.3% (inactive).
For the compound `O=C(CSc1nc2ccccc2c(=O)[nH]1)N1CCOCC1`, the growth inhibition in test [2] was 3.26% (inactive).
For the compound `O=C(CSc1ccccn1)NC1CCCCC1`, the growth inhibition in test [2] is 13.4% (inactive).
As to `CCOc1ccc(-c2cc(C)[n+](CCc3ccc(OC)c(OC)c3)c(-c3ccc(OCC)cc3)c2)cc1`, in test [1], the 90% effect concentration (IC90) is 1450 nM and the IC50 was 720 nM.
Regarding `NC(=O)CSc1nc2ccccc2c(=O)[nH]1`, the growth inhibition in test [2] was 3.58% (inactive).
With `CC1CCN(C(=O)C2CCN(c3nnc(-n4cccc4)s3)CC2)CC1`, in test [1], the 90% effect concentration (IC90) was 6190 nM and the IC50 was 3030 nM.
Taken in the same sequence, the figures for `Nc1c(C(=O)NC2CCCCC2)nsc1C(=O)OCC(=O)NC1CCCCC1` were 52600 nM and 6560 nM.
For the compound `O=C(CSc1nc2c(c(=O)[nH]1)CCCC2)NC1CCCCC1`, in test [1], the concentration for an effect of 90% (IC90) was under 110 nM and the half-inhibitory concentration (IC50) was under 57 nM.
Consider `Cc1ccc(NC(=O)COC(=O)CCc2c[nH]c3ccccc23)cc1[N+](=O)[O-]`, for which, in test [1], the 90% effect concentration (IC90) is 8510 nM and the half-maximal inhibitory concentration (IC50) worked out at 2340 nM.
`Cc1ccc(C(=O)N/N=C(/CC(=O)c2cccs2)C(F)(F)F)cc1`: in test [1], the concentration for an effect of 90% (IC90) was 2900 nM and the concentration for half-maximal inhibition (IC50) was 1710 nM.
As for `Cc1cccc(/C=C/C(=O)c2ccc([N+](=O)[O-])o2)c1`, in test [1], the concentration for an effect of 90% (IC90) is 2230 nM and the IC50 amounted to 1490 nM.
Take `CCC(Sc1nc2ccccc2c(=O)[nH]1)C(=O)Nc1cccc(OC)c1` (stereo not given): the growth inhibition in test [2] is -0.61% (inactive).
For `Cc1cc(Br)ccc1NC(=O)c1cnc(N2CCN(c3ccccn3)CC2)c2ccccc12`, in test [1], the IC50 was determined as 4320 nM.
In the case of `Cc1cnc(SCC(=O)NC2CCCCC2)[nH]c1=O`, in test [2], the growth inhibition is -3.1% (inactive).
Regarding `O=C(CSc1nc2c(c(=O)[nH]1)CCC2)NC1CCCCC1`, in test [1], the 90% effect concentration (IC90) is under 100 nM and the IC50 was under 65 nM.
With `CCSc1nc2ccccc2c(=O)[nH]1`, the growth inhibition in test [2] is -0.83% (inactive).
For `COC(=O)C(Nc1nc(SCC(=O)NC2CCCCC2)nc2ccccc12)c1ccccc1` (stereo not given), the growth inhibition in test [2] was -4.58% (inactive).
Consider `COc1c(N2CCNC(C)C2)c(F)cc2c(=O)c(C(=O)O)cn(C3CC3)c12` (stereo not given), for which, in test [1], the concentration for an effect of 90% (IC90) was 140 nM and the concentration for half-maximal inhibition (IC50) worked out at 109 nM.
For `CC[N+](C)(CC)CCCCOc1ccc2c(c1)C(=O)c1cc(OCCCC[N+](C)(CC)CC)ccc1-2`, in test [1], the IC90 is 2800 nM and the 50% inhibitory concentration (IC50) is 1920 nM.
Regarding `Cc1nc(SCc2ccccc2Cl)[nH]c(=O)c1C`, the growth inhibition in test [2] is -0.81% (inactive).
Consider `NC(=O)c1cnccn1`, for which the growth inhibition in test [2] was 3.35% (inactive).
For the compound `Cc1[nH]c(=S)[nH]c(=O)c1C`, the growth inhibition in test [2] was -2.88% (inactive).
The compound `CCCc1cc(C(N)=S)ccn1` registered an IC50 in test [1] of 9610 nM.
As for `O=C(CSc1nccc(=O)[nH]1)NC1CCCCC1`, the growth inhibition in test [2] was -5.34% (inactive).
For the compound `NNC(=O)c1ccncc1`, in test [1], the IC90 was 460 nM and the IC50 was found to be 310 nM.
Taken in the same sequence, the figures for `O=C(CSc1nc2ccccc2c(=O)[nH]1)NCc1ccc(Cl)cc1` were 1600 nM and 1090 nM.
On to `Cc1nc(SCC(=O)NC2CCCC2)[nH]c(=O)c1C`, for which, in test [1], the 90% effect concentration (IC90) is 13800 nM and the IC50 came to 9450 nM.
For `CC(C)CCNC(=O)CSc1nc2ccccc2c(=O)[nH]1`, in test [1], the IC90 was 280 nM and the IC50 was under 110 nM.
As for `Cc1nc(SCC(N)=O)[nH]c(=O)c1C`, the growth inhibition in test [2] was 3% (inactive).
Turning to `COc1ccc(NC(=O)CSc2nc3ccccc3c(=O)[nH]2)cc1`, the growth inhibition in test [2] is 1.8% (inactive).
As to `CN(C)C(=O)CSc1nc2ccccc2c(=O)[nH]1`, the growth inhibition in test [2] was 4.4% (inactive).
On to `CN[C@@H]1[C@H](O[C@H]2[C@H](O[C@H]3[C@H](O)[C@@H](O)[C@H](N=C(N)N)[C@@H](O)[C@@H]3N=C(N)N)O[C@@H](C)[C@]2(O)C=O)O[C@@H](CO)[C@H](O)[C@H]1O`, for which, in test [1], the 90% effect concentration (IC90) was 180 nM and the half-inhibitory concentration (IC50) turned out to be 126 nM.
For the compound `Cc1nc(SCC(=O)NCCC(C)C)[nH]c(=O)c1C`, in test [1], the concentration for an effect of 90% (IC90) was 13600 nM and the concentration for half-maximal inhibition (IC50) stood at 9380 nM.
Taken in the same sequence, the figures for `c1ccc(/N=C2\N=C(Nc3ccccn3)c3ccccc32)nc1` were 2520 nM and 1780 nM.
Take `Cc1ccc(NC(=O)CSc2nc3ccccc3c(=O)[nH]2)cc1Cl`: in test [2], the growth inhibition is -2.52% (inactive).
Regarding `COc1cccc(NC(=O)CSc2nc3c(c(=O)[nH]2)CCC3)c1`, the growth inhibition in test [2] was -9.1% (inactive).
The same measure, in the same setting: the same measure for `O=C(CSc1ncccn1)NC1CCCCC1`: -3.37% (inactive).
For `O=C(CSc1nc2ccccc2c(=O)[nH]1)NC1CCCCC1`, in test [1], the IC90 was 510 nM and the 50% inhibitory concentration (IC50) was found to be 360 nM.
For the compound `Cc1[nH]c2ccccc2c1C(=O)COC(=O)c1ccc([N+](=O)[O-])s1`, the IC50 in test [1] was over 67100 nM.
For `CC(C)CCNC(=O)CSc1nc2c(c(=O)[nH]1)CCC2`, in test [1], the 90% effect concentration (IC90) is 2020 nM and the IC50 was 1370 nM.
Regarding `O=C(CSc1nc2ccccc2c(=O)[nH]1)NC1CCCC1`, in test [1], the concentration for an effect of 90% (IC90) was 630 nM and the IC50 amounted to 270 nM.
With `CC1CCN(C(=O)CSc2nc3ccccc3c(=O)[nH]2)CC1`, in test [2], the growth inhibition is -0.8% (inactive).
In the case of `CC(C)N=c1cc2n(-c3ccc(Cl)cc3)c3ccccc3nc-2cc1Nc1ccc(Cl)cc1`, in test [1], the concentration for an effect of 90% (IC90) is 360 nM and the IC50 was 67 nM.
Consider `O=c1[nH]c(SCc2ccccc2Cl)nc2c1CCCC2`, for which the growth inhibition in test [2] is 0.45% (inactive).
With `Cc1cc(=O)[nH]c(=S)[nH]1`, the growth inhibition in test [2] was -2.75% (inactive).
As for `Cc1c[nH]c(=S)[nH]c1=O`, the growth inhibition in test [2] was -1.93% (inactive).
The same measure, in the same setting: the same measure for `COc1cccc(NC(=O)CSc2nc3ccccc3c(=O)[nH]2)c1`: -2.5% (inactive).
For the compound `CC(Sc1nc2ccccc2c(=O)[nH]1)C(=O)NC1CCCCC1` (stereo not given), the growth inhibition in test [2] was -1.37% (inactive).
As for `Cc1cc(C)n2nc(N)c(N=Nc3ccccc3)c2n1`, in test [1], the concentration for an effect of 90% (IC90) is 5840 nM and the IC50 amounted to 4250 nM.
For `CCOC(=O)CSc1nc(C)c(C)c(=O)[nH]1`, the growth inhibition in test [2] is -0.94% (inactive).
On to `CCOC1OC(=O)C(Cl)=C1Nc1ccccc1C` (stereo not given), for which, in test [1], the IC90 was 5980 nM and the IC50 amounted to 2980 nM.
In the case of `CCC(Sc1nc2ccccc2c(=O)[nH]1)C(=O)NC1CCCCC1` (stereo not given), in test [2], the growth inhibition is -0.87% (inactive).

A word on the IC90: it is the concentration at which the effect reaches the 90% level. As a reminder, the IC50 is the midpoint of a concentration-inhibition curve.
